# According to US9089603B2, “Fluorescent imaging with substituted cyanine dyes” (LI-COR, INC., priority 2010, dated 2015):
# Key:
# [1] = Absorption wavelength of the cyanine dyes in methanol (halo substitution effect); assay type: physicochemical
# Source text: [table] Design Principle: We analyzed the properties of a dye scaffold and related compounds and the corresponding substitution effects on the excitation and emission wavelengths. The small size of fluorine is unlikely to produce steric effects, therefore, we explored the electronic effects of fluorine and related substitutions. The Hammett equation (σ-value) is an important tool to understand the electronic effects of the substituents, therefore, we explored the correlation of the wavelength (λMeOH) and the σ-value (vide infra): […]
# [2] = Comparison of dye emission maxima and quenching; assay type: physicochemical; details: IRDye 800CW samples; PBS pH 7.4; excitation 770 nm
# Protocol: Solutions of dye-linker standards and dye-linker-quencher samples were diluted into PBS buffer (pH 7.4) to give a dye-specific absorbance less than 0.2 AU. The fluorescence spectra of each dilution were then taken at a consistent excitation wavelength (670 nm for HETD and 770 nm for IRDye 800CW). The emission spectra were collected from 680-1000 nm for the HETD samples and 780-1000 nm for the IRDye 800CW samples.
# [3] = Photophysical properties (absorption, emission, fluorescence intensity, quantum yield) versus IRDye 800CW; assay type: physicochemical
# [4] = In vivo clearance imaging in nude mice (Pearl Impulse); details: 1 nmole; for Total (signal): 800 channel
# Protocol: Two nude mice were injected with 1 nmole of either compound 16 or IRDye 800CW carboxylate. They were then imaged longitudinally over the next 24 h with the Pearl Impulse imaging system. The results are presented in FIG. 9: in vivo clearance in nudes (FIG. 9A), whole body dorsal views (FIG. 9B), and the rate of clearance (FIG. 9C). The clearance data is presented below in Table 4.
λMeOH ([1]; Table 5) [nm],λMeOH ([1]; Table 2) [nm],Molecule,also measured
772,,CC1(C)C(/C=C/C2=C(c3ccccc3F)C(=C/C=C3/N(CCCCS(=O)(=O)[O-])c4ccc(S(=O)(=O)[O-])cc4C3(C)C)/CCC2)=[N+](CCCCCC(=O)O)c2ccc(S(=O)(=O)[O-])cc21.[Na+].[Na+],
782,,CC1(C)C(/C=C/C2=C(c3c(F)cccc3F)C(=C/C=C3/N(CCCCS(=O)(=O)[O-])c4ccc(S(=O)(=O)[O-])cc4C3(C)C)/CCC2)=[N+](CCCCCC(=O)O)c2ccc(S(=O)(=O)[O-])cc21.[Na+].[Na+],
782,,CC1(C)C(/C=C/C2=C(c3c(F)cc(C(=O)O)cc3F)C(=C/C=C3/N(CCCCS(=O)(=O)[O-])c4ccc(S(=O)(=O)[O-])cc4C3(C)C)/CCC2)=[N+](CCCCCC(=O)O)c2ccc(S(=O)(=O)[O-])cc21.[Na+].[Na+],
,766,CC1(C)C(/C=C/C2=C(c3cccc(CCCCC(=O)O)c3)C(=C/C=C3/N(CCCCS(=O)(=O)[O-])c4ccc(S(=O)(=O)[O-])cc4C3(C)C)/CCC2)=[N+](CCCCS(=O)(=O)[O-])c2ccc(S(=O)(=O)[O-])cc21.[Na+].[Na+].[Na+] [Compound 11],
,782,CC1(C)C(/C=C/C2=C(c3c(F)cccc3F)C(=C/C=C3/N(CCCCS(=O)(=O)[O-])c4ccc(S(=O)(=O)[O-])cc4C3(C)C)/CCC2)=[N+](CCCCS(=O)(=O)[O-])c2ccc(S(=O)(=O)[O-])cc21.[Na+].[Na+].[Na+] [Compound 13],
,785,CC1(C)C(/C=C/C2=C(c3c(F)cc(F)cc3F)C(=C/C=C3/N(CCCCS(=O)(=O)[O-])c4ccc(S(=O)(=O)[O-])cc4C3(C)C)/CCC2)=[N+](CCCCS(=O)(=O)[O-])c2ccc(S(=O)(=O)[O-])cc21.[Na+].[Na+].[Na+] [Compound 14],
,783,COc1cc(F)c(C2=C(/C=C/C3=[N+](CCCCS(=O)(=O)[O-])c4ccc(S(=O)(=O)[O-])cc4C3(C)C)CCC/C2=C\C=C2\N(CCCCS(=O)(=O)[O-])c3ccc(S(=O)(=O)[O-])cc3C2(C)C)c(F)c1.[Na+].[Na+].[Na+] [Compound 21],
,782,CC1(C)C(/C=C/C2=C(c3c(F)cc(C(=O)O)cc3F)C(=C/C=C3/N(CCCCS(=O)(=O)[O-])c4ccc(S(=O)(=O)[O-])cc4C3(C)C)/CCC2)=[N+](CCCCS(=O)(=O)[O-])c2ccc(S(=O)(=O)[O-])cc21.[Na+].[Na+].[Na+] [Compound 26],
,770,CC1(C)C(/C=C/C2=C(c3cccc(F)c3F)C(=C/C=C3/N(CCCCS(=O)(=O)[O-])c4ccc(S(=O)(=O)[O-])cc4C3(C)C)/CC(C(=O)O)C2)=[N+](CCCCS(=O)(=O)[O-])c2ccc(S(=O)(=O)[O-])cc21.[Na+].[Na+].[Na+] (stereo not shown) [Compound 63a],
,772,CC1(C)C(/C=C/C2=C(c3ccc(C(=O)O)c(F)c3F)C(=C/C=C3/N(CCCCS(=O)(=O)[O-])c4ccc(S(=O)(=O)[O-])cc4C3(C)C)/CCC2)=[N+](CCCCS(=O)(=O)[O-])c2ccc(S(=O)(=O)[O-])cc21.[Na+].[Na+].[Na+] [Compound 64],

# Further lines, the molecule ahead of its results:
Molecule,λMeOH ([1]; Table 5) [nm],λMeOH ([1]; Table 2) [nm],also measured
CC1(C)C(/C=C/C2=C(c3c(F)cc(F)cc3F)C(=C/C=C3/N(CCCCS(=O)(=O)[O-])c4ccc(S(=O)(=O)[O-])cc4C3(C)C)/CCC2)=[N+](CCCCCC(=O)O)c2ccc(S(=O)(=O)[O-])cc21.[Na+].[Na+],785,,
CCCCOc1c(F)cc(F)c(C2=C(/C=C/C3=[N+](CCCCCC(=O)O)c4ccc(S(=O)(=O)[O-])cc4C3(C)C)CCC/C2=C\C=C2\N(CCCCS(=O)(=O)[O-])c3ccc(S(=O)(=O)[O-])cc3C2(C)C)c1F.[Na+].[Na+],789,,
CC1(C)C(/C=C/C2=C(c3c(Cl)cccc3Cl)C(=C/C=C3/N(CCCCS(=O)(=O)[O-])c4ccc(S(=O)(=O)[O-])cc4C3(C)C)/CCC2)=[N+](CCCCCC(=O)O)c2ccc(S(=O)(=O)[O-])cc21.[Na+].[Na+],782,,
COc1cc(F)c(C2=C(/C=C/C3=[N+](CCCCCC(=O)O)c4ccc(S(=O)(=O)[O-])cc4C3(C)C)CCC/C2=C\C=C2\N(CCCCS(=O)(=O)[O-])c3ccc(S(=O)(=O)[O-])cc3C2(C)C)c(F)c1.[Na+].[Na+],772,,
CCCCOc1ccc(F)c(C2=C(/C=C/C3=[N+](CCCCCC(=O)O)c4ccc(S(=O)(=O)[O-])cc4C3(C)C)CCC/C2=C\C=C2\N(CCCCS(=O)(=O)[O-])c3ccc(S(=O)(=O)[O-])cc3C2(C)C)c1F.[Na+].[Na+],779,,
CCCCOc1c(F)c(F)c(C2=C(/C=C/C3=[N+](CCCCCC(=O)O)c4ccc(S(=O)(=O)[O-])cc4C3(C)C)CCC/C2=C\C=C2\N(CCCCS(=O)(=O)[O-])c3ccc(S(=O)(=O)[O-])cc3C2(C)C)c(F)c1F.[Na+].[Na+],790,,
CC1(C)C(/C=C/C2=C(c3ccccc3F)C(=C/C=C3/N(CCCCS(=O)(=O)[O-])c4ccc(S(=O)(=O)[O-])cc4C3(C)C)/CCC2)=[N+](CCCCS(=O)(=O)[O-])c2ccc(S(=O)(=O)[O-])cc21.[Na+].[Na+].[Na+] [Compound 12],,772,
CC1(C)C(/C=C/C2=C(c3c(Cl)cccc3Cl)C(=C/C=C3/N(CCCS(=O)(=O)[O-])c4ccc(S(=O)(=O)[O-])cc4C3(C)C)/CC(C(=O)O)C2)=[N+](CCCS(=O)(=O)[O-])c2ccc(S(=O)(=O)[O-])cc21.[Na+].[Na+].[Na+] (stereo not shown) [Compound 15],,782,
CCCCOc1ccc(F)c(C2=C(/C=C/C3=[N+](CCCCS(=O)(=O)[O-])c4ccc(S(=O)(=O)[O-])cc4C3(C)C)CCC/C2=C\C=C2\N(CCCCS(=O)(=O)[O-])c3ccc(S(=O)(=O)[O-])cc3C2(C)C)c1F.[Na+].[Na+].[Na+] [Compound 22],,783,
CCCCOc1c(F)cc(F)c(C2=C(/C=C/C3=[N+](CCCCS(=O)(=O)[O-])c4ccc(S(=O)(=O)[O-])cc4C3(C)C)CCC/C2=C\C=C2\N(CCCCS(=O)(=O)[O-])c3ccc(S(=O)(=O)[O-])cc3C2(C)C)c1F.[Na+].[Na+].[Na+] [Compound 23],,789,
CCCCOc1c(F)c(F)c(C2=C(/C=C/C3=[N+](CCCCS(=O)(=O)[O-])c4ccc(S(=O)(=O)[O-])cc4C3(C)C)CCC/C2=C\C=C2\N(CCCCS(=O)(=O)[O-])c3ccc(S(=O)(=O)[O-])cc3C2(C)C)c(F)c1F.[Na+].[Na+].[Na+] [Compound 24],,790,
"CC1(C)C(/C=C/C2=C(Oc3ccc(S(=O)(=O)[O-])cc3)C(=C/C=C3/N(CCCCCC(=O)NCCOCCOCCOCCN=[N+]=[N-])c4ccc(S(=O)(=O)[O-])cc4C3(C)C)/CCC2)=[N+](CCCCS(=O)(=O)[O-])c2ccc(S(=O)(=O)[O-])cc21.[Na+].[Na+].[Na+] [Compound 29, sodium 2-((E)-2-((E)-3-((E)-2-(1-(1-azido-13-oxo-3,6,9-trioxa-12-azaoctadecan-18-yl)-3,3-dimethyl-5-sulfonatoindolin-2-ylidene)ethylidene)-2-(4-sulfonatophenoxy)cyclohex-1-enyl)vinyl)-3,3-dimethyl-1-(4-sulfonatobutyl)-3H-indolium-5-sulfonate]",,,Peak fluorescence emission intensity [2]: 1245060
CC1(C)C(/C=C/C2=C(Oc3ccc(S(=O)(=O)[O-])cc3)C(=C/C=C3/N(CCCCCC(=O)NCCC(=O)N4Cc5ccccc5C#Cc5ccccc54)c4ccc(S(=O)(=O)[O-])cc4C3(C)C)/CCC2)=[N+](CCCCS(=O)(=O)[O-])c2ccc(S(=O)(=O)[O-])cc21.[Na+].[Na+].[Na+] [Compound 30],,,Peak fluorescence emission intensity [2]: 1203780
CC1(C)C(/C=C/C2=C(Oc3ccc(S(=O)(=O)[O-])cc3)C(=C/C=C3/N(CCCCS(=O)(=O)[O-])c4ccc(S(=O)(=O)[O-])cc4C3(C)C)/CCC2)=[N+](CCCCCC(=O)NCCCOCCOCCOCCCN)c2ccc(S(=O)(=O)[O-])cc21.O=C(O)C(F)(F)F.[Na+].[Na+].[Na+] [Compound 32],,,Peak fluorescence emission intensity [2]: 1343900
CC1(C)C(/C=C/C2=C(c3cccc(F)c3F)C(=C/C=C3/N(CCCCS(=O)(=O)[O-])c4ccc(S(=O)(=O)[O-])cc4C3(C)C)/CCC2)=[N+](CCCCS(=O)(=O)[O-])c2ccc(S(=O)(=O)[O-])cc21.[Na+].[Na+].[Na+] [Compound 62k],,,"Fl Intensity of X / Fl Intensity of 800 CW, Odyssey ([3]; 0.1 μM solutions in 1XPBS, Odyssey): 104%; Fl Intensity of X / Fl Intensity of 800 CW, Fluorimeter ([3]; 0.1 μM solutions in 1XPBS, fluorimeter): 100%; Quantum Yield ([3]; Stnd = IRDye 800CW (QY = 0.07)): 0.060; Abs Max PBS ([3]; in PBS): 773 nm; EmMax PBS ([3]; in PBS): 790 nm; Abs Max Methanol ([3]; in methanol): 781 nm"
CC1(C)C(/C=C/C2=C(c3ccc(CCC(=O)O)c(F)c3F)C(=C/C=C3/N(CCCCS(=O)(=O)[O-])c4ccc(S(=O)(=O)[O-])cc4C3(C)C)/CCC2)=[N+](CCCCS(=O)(=O)[O-])c2ccc(S(=O)(=O)[O-])cc21.[Na+].[Na+].[Na+] [Compound 65],,776,
CC1(C)C(/C=C/C2=C(c3ccc(C(=O)NCCCCCC(=O)O)c(F)c3F)C(=C/C=C3/N(CCCCS(=O)(=O)[O-])c4ccc(S(=O)(=O)[O-])cc4C3(C)C)/CCC2)=[N+](CCCCS(=O)(=O)[O-])c2ccc(S(=O)(=O)[O-])cc21.[Na+].[Na+].[Na+] [Compound 66],,773,
IRDye 800CW carboxylate [reference compound],,,"Total (signal) ([4]; 3 Min): 114295.49; Total (signal) ([4]; 19 Min): 306555.97; Total (signal) ([4]; 47 Min): 291381.69; Total (signal) ([4]; 74 Min): 272408.13; Total (signal) ([4]; 192 Min): 154950.09; Total (signal) ([4]; 278 Min): 102698.54; Total (signal) ([4]; 1439 Min): 2336.87; Clearance in vivo ([4]; nude mice, imaged over 24 h): good clearance"
